Patent publication EP2014284A1, “Pharmaceutical compositions and uses” (NOVARTIS AG, priority 2007, dated 2009)
Marks after values point to notes of the source that are not given here.

Test system: hypertensive OA patients
Text: Method: A 4-week, multicenter, randomized, double-blind, double-dummy, parallel group study of hypertensive OA patients aged ≥50 years (office BP ≤140/90 mmHg) on stable antihypertensive treatment. […] The primary outcome measure was the change from baseline (BL) at Week 4 in 24-hour mean ambulatory systolic BP (MASBP) in the intent-to-treat (ITT) population using ANCOVA. The secondary analyses included 24-hour mean ambulatory diastolic BP (MADBP […]. In addition, a post-hoc subgroup analysis was performed to evaluate the primary and secondary analysis at Week 4 (using ANCOVA) for patients exclusively on ACE inhibitors as antihypertensive drug.

[1] = change from baseline, lumiracoxib (n=140) vs ibuprofen (n=132), patients exclusively on ACE-inhibitors, p<0.001

Row | SMILES | increase in MASBP (change from BL at Week 4, 24-hour MASBP, ibuprofen 600 mg tid) [mmHg] | decrease in MASBP (change from BL at Week 4, 24-hour MASBP, lumiracoxib 100 mg od) [mmHg] | 24 h MADBP Difference in LSM (95% CI) [1] | 24 h MASBP Difference in LSM (95% CI) [1] | Clinically relevant increase (>= 5 mm Hg increase in 24 h MADBP and/or >= 10 mm Hg increase in 24h MASBP), number of patients (human, in vivo, 4 weeks) [patients] | Clinically relevant increase (>= 5 mm Hg increase in 24 h MADBP and/or >= 10 mm Hg increase in 24h MASBP), share of patients (human, in vivo, 4 weeks) [%] | 24-hour MADBP, estimated treatment difference (lumiracoxib 100 mg od vs ibuprofen 600 mg tid, Week 4, [95% CI: -2.7, -1.3], p<0.001) [mmHg]
1 | CC(C)Cc1ccc(C(C)C(=O)O)cc1 (stereo not shown) [ibuprofen] | 2.2 | – | – | – | – | – | –
2 | Cc1ccc(Nc2c(F)cccc2Cl)c(CC(=O)O)c1 [lumiracoxib, 5-methyl-2-(2'-chloro-6'-fluoroanilino)phenylacetic acid] | – | 2.7 | -3.9 (-5.1,-2.7)* | -7.5 (-9.6, -5.5)* | 13 | 9.3 | -2
